Source: PubChem BioAssay (NCI)
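Exposure lasted 48 hours, with cells grown in 96-well plates and compounds tested at five concentrations. At the GI50, growth is halved. Definition used: TGI = concentration required for complete inhibition of growth.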

Columns and labels:
Experiment in all cases: NCI-60 cell line screen, 48 h; in the data active means GI50 below about 0.43 µM; inactive means the rest
SNB-19 CNS = system: SNB-19 CNS
U251 CNS = system: U251 CNS
UO-31 renal = system: UO-31 renal
BT-549 breast = system: BT-549 breast
SK-MEL-5 melanoma = system: SK-MEL-5 melanoma
786-0 renal = system: 786-0 renal
HCT-15 colon = system: HCT-15 colon
CCRF-CEM leukemia = system: CCRF-CEM leukemia
DU-145 prostate = system: DU-145 prostate
OVCAR-5 ovarian = system: OVCAR-5 ovarian
MCF7 breast = system: MCF7 breast
RPMI-8226 leukemia = system: RPMI-8226 leukemia
SK-MEL-2 melanoma = system: SK-MEL-2 melanoma
EKVX NSCLC = system: EKVX NSCLC
K-562 leukemia = system: K-562 leukemia
LOX IMVI melanoma = system: LOX IMVI melanoma
SF-539 CNS = system: SF-539 CNS
NCI-H23 lung = system: NCI-H23 lung
CAKI-1 renal = system: CAKI-1 renal
NCI/ADR-RES ovarian = system: NCI/ADR-RES ovarian
MDA-MB-435 = system: MDA-MB-435
NCI-H460 lung = system: NCI-H460 lung
SNB-75 CNS = system: SNB-75 CNS
HCT-116 colon = system: HCT-116 colon
ACHN renal = system: ACHN renal
HOP-62 NSCLC = system: HOP-62 NSCLC
MOLT-4 leukemia = system: MOLT-4 leukemia
HL-60(TB) leukemia = system: HL-60(TB) leukemia
OVCAR-3 ovarian = system: OVCAR-3 ovarian
UACC-257 melanoma = system: UACC-257 melanoma
NCI-H226 lung = system: NCI-H226 lung
MDA-MB-231 breast = system: MDA-MB-231 breast
TK-10 renal = system: TK-10 renal
SF-268 CNS = system: SF-268 CNS
SW-620 colon = system: SW-620 colon
SF-295 CNS = system: SF-295 CNS
HS 578T breast = system: HS 578T breast
COLO 205 colon = system: COLO 205 colon
SK-MEL-28 melanoma = system: SK-MEL-28 melanoma
KM12 colon = system: KM12 colon
MALME-3M melanoma = system: MALME-3M melanoma
SN12C renal = system: SN12C renal
M14 melanoma = system: M14 melanoma
OVCAR-4 ovarian = system: OVCAR-4 ovarian
SR leukemia = system: SR leukemia
IGROV1 ovarian = system: IGROV1 ovarian
SK-OV-3 ovarian = system: SK-OV-3 ovarian
HT29 colon = system: HT29 colon
NCI-H522 lung = system: NCI-H522 lung
UACC-62 melanoma = system: UACC-62 melanoma
HCC-2998 colon = system: HCC-2998 colon
RXF 393 renal = system: RXF 393 renal
OVCAR-8 ovarian = system: OVCAR-8 ovarian
PC-3 prostate = system: PC-3 prostate
A498 renal = system: A498 renal
A549 NSCLC = system: A549 NSCLC

O=C(c1ccco1)c1nc2ccc(Cl)cc2[n+]([O-])c1C(F)(F)F
inactive: GI50 (SNB-19 CNS) 72.6 µM | GI50 (U251 CNS) 69.8 µM | GI50 (UO-31 renal) > 100 µM | GI50 (BT-549 breast) > 100 µM | GI50 (SK-MEL-5 melanoma) 90.3 µM | GI50 (786-0 renal) > 100 µM | GI50 (HCT-15 colon) > 100 µM | GI50 (CCRF-CEM leukemia) 39.4 µM | GI50 (DU-145 prostate) > 100 µM | GI50 (OVCAR-5 ovarian) > 100 µM | GI50 (MCF7 breast) 30.4 µM | GI50 (RPMI-8226 leukemia) 31.1 µM | GI50 (SK-MEL-2 melanoma) > 100 µM | GI50 (EKVX NSCLC) 96.2 µM | GI50 (K-562 leukemia) > 100 µM | GI50 (LOX IMVI melanoma) > 100 µM | GI50 (SF-539 CNS) > 100 µM | GI50 (NCI-H23 lung) > 100 µM | GI50 (CAKI-1 renal) 95.6 µM | GI50 (NCI/ADR-RES ovarian) > 100 µM | GI50 (MDA-MB-435) > 100 µM | GI50 (NCI-H460 lung) 91.4 µM | GI50 (SNB-75 CNS) 52.8 µM | GI50 (HCT-116 colon) > 100 µM | GI50 (ACHN renal) > 100 µM | GI50 (HOP-62 NSCLC) 91.3 µM | GI50 (MOLT-4 leukemia) > 100 µM | GI50 (HL-60(TB) leukemia) > 100 µM | GI50 (OVCAR-3 ovarian) > 100 µM | GI50 (UACC-257 melanoma) > 100 µM | GI50 (NCI-H226 lung) > 100 µM | GI50 (MDA-MB-231 breast) 59.1 µM | GI50 (TK-10 renal) 62.7 µM | GI50 (SF-268 CNS) 50.1 µM | GI50 (SW-620 colon) > 100 µM | GI50 (SF-295 CNS) > 100 µM | GI50 (HS 578T breast) > 100 µM | GI50 (COLO 205 colon) > 100 µM | GI50 (SK-MEL-28 melanoma) > 100 µM | GI50 (KM12 colon) > 100 µM | GI50 (MALME-3M melanoma) > 100 µM | GI50 (SN12C renal) > 100 µM | GI50 (M14 melanoma) > 100 µM | GI50 (OVCAR-4 ovarian) > 100 µM | GI50 (SR leukemia) 66.3 µM | GI50 (IGROV1 ovarian) > 100 µM | GI50 (SK-OV-3 ovarian) > 100 µM | GI50 (HT29 colon) > 100 µM | GI50 (NCI-H522 lung) > 100 µM | GI50 (UACC-62 melanoma) > 100 µM | GI50 (HCC-2998 colon) 88.4 µM | GI50 (RXF 393 renal) 27.4 µM | GI50 (OVCAR-8 ovarian) 64.9 µM | GI50 (PC-3 prostate) 37.1 µM | GI50 (A498 renal) > 100 µM | GI50 (A549 NSCLC) > 100 µM
62 µM: TGI (RXF 393 renal)
> 100 µM: TGI (SNB-19 CNS) | TGI (U251 CNS) | TGI (UO-31 renal) | TGI (BT-549 breast) | TGI (SK-MEL-5 melanoma) | TGI (786-0 renal) | TGI (HCT-15 colon) | TGI (CCRF-CEM leukemia) | TGI (DU-145 prostate) | TGI (OVCAR-5 ovarian) | TGI (MCF7 breast) | TGI (RPMI-8226 leukemia) | TGI (SK-MEL-2 melanoma) | TGI (EKVX NSCLC) | TGI (K-562 leukemia) | TGI (LOX IMVI melanoma) | TGI (SF-539 CNS) | TGI (NCI-H23 lung) | TGI (CAKI-1 renal) | TGI (NCI/ADR-RES ovarian) | TGI (MDA-MB-435) | TGI (NCI-H460 lung) | TGI (SNB-75 CNS) | TGI (HCT-116 colon) | TGI (ACHN renal) | TGI (HOP-62 NSCLC) | TGI (MOLT-4 leukemia) | TGI (HL-60(TB) leukemia) | TGI (OVCAR-3 ovarian) | TGI (UACC-257 melanoma) | TGI (NCI-H226 lung) | TGI (MDA-MB-231 breast) | TGI (TK-10 renal) | TGI (SF-268 CNS) | TGI (SW-620 colon) | TGI (SF-295 CNS) | TGI (HS 578T breast) | TGI (COLO 205 colon) | TGI (SK-MEL-28 melanoma) | TGI (KM12 colon) | TGI (MALME-3M melanoma) | TGI (SN12C renal) | TGI (M14 melanoma) | TGI (OVCAR-4 ovarian) | TGI (SR leukemia) | TGI (IGROV1 ovarian) | TGI (SK-OV-3 ovarian) | TGI (HT29 colon) | TGI (NCI-H522 lung) | TGI (UACC-62 melanoma) | TGI (HCC-2998 colon) | TGI (OVCAR-8 ovarian) | TGI (PC-3 prostate) | TGI (A498 renal) | TGI (A549 NSCLC)
